The target of data set [1] is T1, Epidermal growth factor receptor (Homo sapiens, UniProt P00533).
Description: Inhibition of wild type EGFR (unknown origin) using poly (Glu:Tyr) as substrate incubated for 1 hr in presence of ATP by ADP-glo kinase assay
The target of data set [2] is T2, Tyrosine-protein kinase JAK3 (Homo sapiens, UniProt P52333).
T2 sequence (P52333 whole entry): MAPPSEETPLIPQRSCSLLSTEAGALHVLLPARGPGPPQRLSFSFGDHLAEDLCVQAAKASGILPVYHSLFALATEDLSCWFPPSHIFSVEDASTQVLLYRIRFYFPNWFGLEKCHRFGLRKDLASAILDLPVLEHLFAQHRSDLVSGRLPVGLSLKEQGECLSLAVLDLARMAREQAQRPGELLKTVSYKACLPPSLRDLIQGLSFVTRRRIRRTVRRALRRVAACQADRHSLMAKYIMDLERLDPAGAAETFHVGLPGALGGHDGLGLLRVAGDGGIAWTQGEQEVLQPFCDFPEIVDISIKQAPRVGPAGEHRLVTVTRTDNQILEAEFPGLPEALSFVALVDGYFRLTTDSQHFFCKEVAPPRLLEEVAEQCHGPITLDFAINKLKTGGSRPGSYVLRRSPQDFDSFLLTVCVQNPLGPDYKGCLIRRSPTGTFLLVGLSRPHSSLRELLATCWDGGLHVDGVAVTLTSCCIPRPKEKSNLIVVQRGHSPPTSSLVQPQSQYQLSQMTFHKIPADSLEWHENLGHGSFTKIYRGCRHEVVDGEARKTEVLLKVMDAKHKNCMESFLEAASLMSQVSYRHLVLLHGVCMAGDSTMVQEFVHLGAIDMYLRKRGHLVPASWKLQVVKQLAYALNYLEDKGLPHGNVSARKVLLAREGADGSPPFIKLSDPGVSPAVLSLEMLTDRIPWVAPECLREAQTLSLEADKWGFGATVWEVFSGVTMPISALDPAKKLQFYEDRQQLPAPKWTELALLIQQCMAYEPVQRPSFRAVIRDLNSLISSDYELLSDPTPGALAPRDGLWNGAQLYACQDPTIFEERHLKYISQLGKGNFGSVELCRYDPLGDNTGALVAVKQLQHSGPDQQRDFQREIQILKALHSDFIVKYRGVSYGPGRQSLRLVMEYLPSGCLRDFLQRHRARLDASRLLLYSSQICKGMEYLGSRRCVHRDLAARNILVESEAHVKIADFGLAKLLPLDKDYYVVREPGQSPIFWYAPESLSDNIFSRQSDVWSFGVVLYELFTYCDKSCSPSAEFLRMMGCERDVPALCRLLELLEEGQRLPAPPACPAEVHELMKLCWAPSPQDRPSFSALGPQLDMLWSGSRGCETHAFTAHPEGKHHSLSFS
Description: Inhibition of JAK3 (unknown origin) using poly (Glu:Tyr) as substrate incubated for 1 hr in presence of ATP by ADP-glo kinase assay

In data set [3] the target is Epidermal growth factor receptor (Homo sapiens, UniProt P00533, L858R/T790M).
The nature of data set [4]: physchem. As to conditions: 1-octanol/PBS, pH 7.4.
Data set [5] is described as follows: in vitro. As to conditions: human, HepG2 cells and A549 cells.
Description: Selectivity index, ratio of IC50 for human HepG2 cells to IC50 for human A549 cells
Data set [6] in a line: Aqueous solubility of the compound in PBS buffer at PH 7.4 measured after 6 hrs by HPLC-UV analysis. It counts as physicochemical. As to conditions: pH 7.4, 6 h.
The test system of data set [7] is A-431. Put plainly: cells. As to conditions: Homo sapiens, A-431, 72 h.
Data set [8] relates to A549. The data set is described as follows: cells. As to conditions: Homo sapiens, A549, 72 h.
The subject of data set [9] is HepG2. Put plainly: cells. The settings on record: Homo sapiens, HepG2, 72 h.
Data set [10] concerns the target T1, Epidermal growth factor receptor. Put plainly: Binding affinity to wild type EGFR (unknown origin) assessed as inhibition constant.
The target is the same in data set [11]. This is another data set of the same source.
Description: Irreversible inhibition of wild type EGFR (unknown origin) assessed as inactivation constant
The target is the same in data set [12]. Put plainly: Potency index, ratio of rociletinib IC50 to test compound IC50 for inhibition of wild type EGFR (unknown origin).

pIC50, pKi: −log10 of the molar value.

Sequence of Epidermal growth factor receptor (Homo sapiens, UniProt P00533, L858R/T790M) (P00533 25-1210 T790M/L858R limits assumed): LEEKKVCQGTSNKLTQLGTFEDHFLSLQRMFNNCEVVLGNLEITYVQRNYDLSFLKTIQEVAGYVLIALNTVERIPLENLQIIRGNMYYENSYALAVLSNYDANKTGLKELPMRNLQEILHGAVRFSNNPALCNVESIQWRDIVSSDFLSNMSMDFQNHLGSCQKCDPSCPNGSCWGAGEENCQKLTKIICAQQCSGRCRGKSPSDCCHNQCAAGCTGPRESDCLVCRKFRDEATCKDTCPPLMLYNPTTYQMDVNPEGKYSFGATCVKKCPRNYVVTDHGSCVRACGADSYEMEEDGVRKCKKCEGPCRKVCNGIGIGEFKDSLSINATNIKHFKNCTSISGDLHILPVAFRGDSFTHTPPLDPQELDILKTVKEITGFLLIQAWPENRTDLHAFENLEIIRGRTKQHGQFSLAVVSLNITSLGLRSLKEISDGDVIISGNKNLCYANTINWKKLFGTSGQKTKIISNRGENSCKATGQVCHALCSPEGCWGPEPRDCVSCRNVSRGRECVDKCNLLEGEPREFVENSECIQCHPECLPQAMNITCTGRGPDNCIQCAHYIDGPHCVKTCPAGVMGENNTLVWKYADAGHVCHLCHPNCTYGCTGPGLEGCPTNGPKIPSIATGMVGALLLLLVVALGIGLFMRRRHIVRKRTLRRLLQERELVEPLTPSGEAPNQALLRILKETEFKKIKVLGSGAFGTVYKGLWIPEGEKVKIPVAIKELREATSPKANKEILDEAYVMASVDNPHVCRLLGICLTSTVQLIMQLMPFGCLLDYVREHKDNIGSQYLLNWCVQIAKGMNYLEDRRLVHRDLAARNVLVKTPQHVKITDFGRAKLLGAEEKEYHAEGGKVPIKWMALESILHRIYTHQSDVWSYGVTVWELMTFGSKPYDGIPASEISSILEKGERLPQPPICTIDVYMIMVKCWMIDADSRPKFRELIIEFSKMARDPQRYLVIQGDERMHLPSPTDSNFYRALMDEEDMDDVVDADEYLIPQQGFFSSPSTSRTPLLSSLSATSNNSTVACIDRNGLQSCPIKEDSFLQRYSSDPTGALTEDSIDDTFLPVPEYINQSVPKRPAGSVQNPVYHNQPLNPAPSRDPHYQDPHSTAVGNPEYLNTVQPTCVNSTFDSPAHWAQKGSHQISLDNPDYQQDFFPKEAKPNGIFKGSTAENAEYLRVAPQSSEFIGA
T1 sequence (P00533 whole entry): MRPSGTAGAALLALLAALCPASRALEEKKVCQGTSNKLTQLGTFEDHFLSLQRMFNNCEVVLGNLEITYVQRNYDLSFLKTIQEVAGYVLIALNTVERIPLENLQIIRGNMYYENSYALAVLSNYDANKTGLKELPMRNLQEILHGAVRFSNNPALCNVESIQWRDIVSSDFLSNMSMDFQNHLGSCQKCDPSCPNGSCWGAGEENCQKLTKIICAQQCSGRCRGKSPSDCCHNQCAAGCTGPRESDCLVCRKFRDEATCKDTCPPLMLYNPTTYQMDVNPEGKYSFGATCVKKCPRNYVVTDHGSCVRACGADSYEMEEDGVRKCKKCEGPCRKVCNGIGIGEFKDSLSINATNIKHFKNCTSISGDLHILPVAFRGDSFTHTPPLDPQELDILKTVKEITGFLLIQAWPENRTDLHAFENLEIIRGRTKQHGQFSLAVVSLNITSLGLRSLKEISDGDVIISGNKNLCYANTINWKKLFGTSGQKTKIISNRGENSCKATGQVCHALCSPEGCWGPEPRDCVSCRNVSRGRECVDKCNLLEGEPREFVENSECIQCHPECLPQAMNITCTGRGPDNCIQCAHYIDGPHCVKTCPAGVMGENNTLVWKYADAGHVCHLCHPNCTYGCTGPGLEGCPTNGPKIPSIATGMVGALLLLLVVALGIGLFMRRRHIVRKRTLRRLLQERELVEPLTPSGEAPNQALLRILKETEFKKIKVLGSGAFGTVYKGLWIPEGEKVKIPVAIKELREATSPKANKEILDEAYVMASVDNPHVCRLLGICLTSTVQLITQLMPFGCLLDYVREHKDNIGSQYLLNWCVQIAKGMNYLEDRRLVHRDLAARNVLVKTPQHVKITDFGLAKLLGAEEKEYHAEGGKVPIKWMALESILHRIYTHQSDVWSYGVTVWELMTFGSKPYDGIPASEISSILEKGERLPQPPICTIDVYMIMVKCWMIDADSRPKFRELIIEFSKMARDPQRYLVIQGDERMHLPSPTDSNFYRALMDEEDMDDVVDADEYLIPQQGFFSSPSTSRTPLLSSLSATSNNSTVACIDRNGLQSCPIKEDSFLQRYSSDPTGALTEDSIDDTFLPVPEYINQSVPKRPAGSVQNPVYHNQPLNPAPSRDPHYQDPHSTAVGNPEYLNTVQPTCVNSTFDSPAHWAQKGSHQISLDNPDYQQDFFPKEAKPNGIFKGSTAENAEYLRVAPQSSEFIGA

Regarding `Cn1cc(Nc2ncc(Cl)c(Nc3cccc(NC(=O)/C=C/c4ccccc4)c3)n2)cn1`, the negative logarithm of the IC50 (pIC50) (in general, the negative decadic logarithm of the IC50, by convention in mol/L) in data set [1] is 7.35; in data set [2], 8.10; in data set [3], 7.64; in data set [7], 4.98; in data set [8], 5.83; in [9] it was 5.44. In addition, the logD (in general, the decadic logarithm of the distribution of all forms, ionised or not, between an organic phase and buffer at a given pH) at 6 h in data set [4] worked out at 4.18. For the same molecule, the selectivity ratio in [5] was found to be 2.46. Besides, in [6], the solubility came out at 1.35 µg.
For the molecule `CCC(=O)Nc1cccc(Nc2nc(Nc3ccc4[nH]c(=O)oc4c3)ncc2Cl)c1`, the pIC50 in [1] was 6.94.
On to `CCC(=O)Nc1cccc(Nc2nc(Nc3cnn(C)c3)ncc2Cl)c1`, for which the pIC50 in [1] was 7.46; in data set [2], 7.50; in data set [3], 7.72; in data set [7], 4.95; in data set [8] it was 5.56; in data set [9], 4.55. The same molecule gave a logD at 6 h in data set [4] of 2.67. In data set [5], the selectivity ratio turned out to be 10.2. In [6], the solubility amounted to 80.1 µg.
For `C=CC(=O)Nc1cccc(Nc2nc(Nc3ccc4c(C)n(C)nc4c3)ncc2Cl)c1`, the pIC50 in data set [1] is 7.01.
The molecule `C=CC(=O)Nc1cccc(Nc2nc(Nc3ccc(N4CCN(C(C)=O)CC4)cc3OC)ncc2Cl)c1` had a negative-log IC50 (pIC50) in [1] of 7.06.
On the same count and under the same terms, for `Cc1c2ccc(Nc3ncc(Cl)c(Nc4cccc(NC(=O)CCl)c4)n3)cc2nn1C` the value was 7.10; for `CC(=O)N1CCN(c2ccc(Nc3ncc(Cl)c(Nc4cccc(NC(=O)/C=C/c5ccccc5)c4)n3)cc2)CC1`, 7.06; for `O=C(/C=C/c1ccccc1)Nc1cccc(Nc2nc(Nc3ccc4[nH]c(=O)oc4c3)ncc2Cl)c1`, 7.12.
Turning to `Cn1cc(Nc2ncc(Cl)c(Nc3cccc(NC(=O)CCl)c3)n2)cn1`, the negative logarithm of the IC50 (pIC50) is 7.38 in data set [1]; 6.04 in data set [2]; 7.32 in [3]; 5.43 in data set [7]; 5.56 in [8]; 5.37 in data set [9]. The molecule also gave a logD at 6 h in data set [4] of 2.6. Further, in data set [5], the selectivity ratio worked out at 1.54. Besides, the solubility in [6] stood at 183 µg.
As for `CCC(=O)Nc1cccc(Nc2nc(Nc3ccc(N4CCN(C(C)=O)CC4)cc3OC)ncc2Cl)c1`, in data set [1], the pIC50 is 7.20.
For `COc1cc(N2CCN(C(C)=O)CC2)ccc1Nc1ncc(Cl)c(Nc2cccc(NC(=O)/C=C/c3ccccc3)c2)n1`, in [1], the pIC50 was 7.24.
As for `O=C(CCl)Nc1cccc(Nc2nc(Nc3ccc4[nH]c(=O)oc4c3)ncc2Cl)c1`, the negative-log IC50 (pIC50) was 7.37 in data set [1]; 7.20 in data set [3]; 5.13 in [7]; 5.14 in data set [8]; 5.15 in [9]. Moreover, in data set [4], the logD at 6 h is 3.51. Also, the selectivity ratio in data set [5] came out at 0.96. Further, in [6], the solubility is 15.4 µg.
Molecule `CCC(=O)Nc1cccc(Nc2nc(Nc3ccc4c(C)n(C)nc4c3)ncc2Cl)c1` showed a negative-log IC50 (pIC50) in data set [1] of 7.23.
Still for that read-out and setting: for `CC(=O)N1CCN(c2ccc(Nc3ncc(Cl)c(Nc4cccc(NC(=O)CCl)c4)n3)cc2)CC1` the value was 6.94.
As for `C=CC(=O)Nc1cccc(Nc2nc(Nc3ccc(N4CCN(C(C)=O)CC4)cc3)ncc2Cl)c1`, the negative logarithm of the IC50 (pIC50) in [1] is 7.36; in data set [3] it was 7.16; in [7], 5.46; in data set [8], 6.64; in data set [9], 5.97. Also, the logD at 6 h in data set [4] worked out at 3.18. Besides, in data set [5], the selectivity ratio was 4.65. This molecule yielded a solubility in [6] of 13.4 µg.
`C=CC(=O)Nc1cc(Nc2nccc(-c3cn(C)c4ccccc34)n2)c(OC)cc1N(C)CCN(C)C` [OSIMERTINIB]: the negative logarithm of the IC50 (pIC50) in [2] was 7.45; in data set [7], […]; in data set [8], 4.99; in data set [9], 5.44. Also, in data set [4], the pH-dependent lipophilicity (logD) at 6 h was 3.43. This molecule also returned a solubility in data set [6] of 30.1 µg.
Regarding `C=CC(=O)Nc1cccc(Nc2nc(Nc3ccc4[nH]c(=O)oc4c3)ncc2Cl)c1`, the negative-log IC50 (pIC50) in data set [1] is 7.20.
With `C=CC(=O)Nc1cccc(Nc2nc(Nc3cnn(C)c3)ncc2Cl)c1`, the pIC50 in data set [1] was 6.76; in data set [2], 7.16; in data set [3], 7.68; in data set [7] it was 5.19; in [8], 6.10; in [9], 5.49. The molecule also displayed a logD at 6 h in [4] of 2.86. In addition, the selectivity ratio in data set [5] is 4.11. Also, the negative logarithm of the Ki (pKi) (as a rule, the Ki on a negative log10 scale, so that one unit is a factor of ten) in data set [10] is 2.42. Besides, the solubility in data set [6] stood at 109 µg. In addition, in [11], the Kinact is 6.16 10^-1/s.
On to `COc1cc(N2CCN(C(C)=O)CC2)ccc1Nc1ncc(Cl)c(Nc2cccc(NC(=O)CCl)c2)n1`, for which the negative logarithm of the IC50 (pIC50) was 7.65 in [1]; 7.25 in [3]; 5.15 in [7]; 5.24 in data set [8]; 4.90 in [9]. The molecule further registered a logD at 6 h in [4] of 3.67. In data set [5], the selectivity ratio was 2.18. In data set [6], this molecule gave a solubility of 8.65 µg. The Ratio IC50 in [12] was determined as 28.
Take `C=CC(=O)Nc1cccc(Nc2nc(Nc3ccc(N4CCN(C(C)=O)CC4)cc3OC)ncc2C(F)(F)F)c1` [ROCILETINIB]: the pIC50 was 8.37 in [2], 6.49 in data set [7], 6.70 in data set [8] and 5.13 in data set [9]. For the same molecule, the log distribution coefficient (logD) at 6 h in data set [4] amounted to 3.18. Also, the solubility in data set [6] was determined as 221 µg.
Molecule `CCC(=O)Nc1cccc(Nc2nc(Nc3ccc(N4CCN(C(C)=O)CC4)cc3)ncc2Cl)c1` had a negative-log IC50 (pIC50) in data set [1] of 7.18.
Molecule `Cc1c2ccc(Nc3ncc(Cl)c(Nc4cccc(NC(=O)/C=C/c5ccccc5)c4)n3)cc2nn1C` showed a pIC50 in [1] of 7.18.

Source of the values: ChEMBL document CHEMBL6092148, “Design, preparation and biological evaluation of new Rociletinib-inspired analogs as irreversible EGFR inhibitors to treat non-small-cell-lung cancer” (Bioorg Med Chem, 2024).
